Paper PMC6949133, “Application of a novel regulatable Cre recombinase system to define the role of liver and gut metabolism in drug oral bioavailability” (The Biochemical journal, 2015)

Legend:
POR [1] = experiment: POR expression by Western blot/densitometry in tissues of ERL mice after Cyp1a1 inducer; format: in vivo, mouse
Description: (§1) Single doses of βNF (80 mg/kg body weight as a suspension in corn oil) were administered intraperitoneally (i.p.). Doses of 3MC between 0.5 and 40 mg/kg body weight (single injections) were administered i.p. in corn oil; in some experiments, three daily doses were administered, as detailed in the Figure legends. Mice were killed at the same time of day by a rising concentration of CO2 9 or 14 days after dosing and the following tissues removed and snap-frozen in liquid nitrogen: liver, lung, kidney, small intestine, large intestine, spleen and skin. Samples were then stored at − 80°C until processing for sub-cellular fractions.
Microsomal fractions were prepared as described previously and stored at − 70°C until required. Microsomal protein concentrations were determined using the Bio-Rad Protein Assay Reagent (Bio-Rad Laboratories) and Western blot analysis was preformed as described previously using polyclonal antisera to rat P450s and POR [27, 28]. Immunoreactive proteins were detected using horseradish peroxidase (HRP)-conjugated polyclonal goat anti-rabbit, anti-mouse or anti-sheep immunoglobulin secondary antibodies, as appropriate (Dako). Bands were visualized using Immobilon™ chemiluminescent HRP-conjugated substrate (Millipore) and a FUJIFILM LAS-3000 mini imaging system (Fujifilm UK.). Densitometric analysis was performed using Multi Gauge V2.2 software (Fujifilm UK).

POR [2] = experiment: POR activity in microsomes of treated ERL mice, cytochrome c reduction; format: in vivo, mouse
Description: (§2) The low levels of cytochrome c reduction detected in the small intestine were further decreased (by 78%) in ERL animals treated with 40 mg/kg 3MC (36.2 ± 15.6 compared with 8.2 ± 3.3 nmol cytochrome c reduced/min/mg respectively, n = 3, mean + S.D., P < 0.01). No P450 activity was detected in small intestinal microsomes from either WT or ERL animals.

P450 = experiment: P450-mediated substrate turnover in liver of treated ERL mice; format: in vivo, mouse; settings: 3MC 40 mg/kg, n=6
Description: as §2

[3] = Tolerability and gross liver phenotype of ERL mice after inducer dosing; format: in vivo, mouse
Description: as §1
The effects of a single dose of the polycyclic aromatic hydrocarbon AhR ligand βNF (80 mg/kg i.p.) on ERL mice were investigated in initial range-finding experiments (Figure 2A). Liver and small intestine tissues were harvested 9 or 14 days after dosing. […] On post mortem examination, βNF treated ERL mice had pale, mottled, enlarged livers which weighed approximately 60% more than those of either corn oil treated ERL mice or βNF treated WT animals. This phenotype is characteristic of POR deletion and is also observed in HRN and RCN animals. The effect on POR expression in the ERL liver and small intestine of a single dose of βNF (80 mg/kg i.p.) was similar to that observed in RCN mice following four daily doses (compare Figure 2A with Figure 1 of Finn et al.).
Both ERL and WT animals lost weight in response to this treatment.

[4] = In vivo pharmacokinetics of probe drugs in WT and ERL (POR-deleted) mice, blood LC-MS/MS; settings: for Cl / Cmax: mean ± S.D., n=3; for Cmax: po
Description: WT and ERL mice (n = 3) were pre-treated with corn oil or 3MC (4 or 40 mg/kg). A single dose of midazolam (5 mg/kg p.o.), or nelfinavir (50 mg/kg p.o.) or paroxetine (10 mg/kg p.o.) was administered on day 14 after 3MC treatment. Whole blood (10 μl) was taken from the tail vein at timed intervals after drug administration and transferred into a tube containing heparin (10 μl, 15 IU/ml).
For midazolam analysis, internal standard solution (10 μl; 500 ng of caffeine and 500 ng of resorpine) was added and proteins were precipitated using methanol (75 μl), followed by 8% sulfosalicylic acid (55 μl). Samples were mixed for 1 min and centrifuged at 13 000 g for 5 min. The supernatant was analysed for midazolam and the two internal standards by LC–MS/MS, as described previously. Standard curves were constructed by spiking blank blood samples with known amounts of midazolam. Extraction and protein precipitation were carried out as outlined above for the test samples.
For nelfinavir and paroxetine analysis, mouse blood extraction was performed by a method based on protein precipitation using acetonitrile containing sulfadimethoxine (100 ng/ml) as internal standard. Samples were vortex mixed for 1 min followed by centrifugation at 2800 g for 10 min. Supernatants were analysed by UPLC–MS/MS using a Xevo TQs mass spectrometer (Waters). Nelfinavir, paroxetine and sulfadimethoxine were separated on an Acquity UPLC BEH C18 column (1.7 μm particle size, 50 × 2.1 mm i.d.) by gradient elution with acetonitrile and water at a flow rate 0.6 ml/min. The cycle time of each analysis was 3 min. Matrix effects were assessed by dilution. Quantification of the analytes was performed in electrospray positive ionization mode using multiple reaction monitoring.
Pharmacokinetic parameters were calculated using WinNonLin software, version 3.1. A simple non-compartmental model was used to calculate the area under the curve (AUC), terminal half-life, Cmax and clearance. Statistical analysis of pharmacokinetic data was carried out using Student’s t tests.

[5] = system: PhIP-DNA adducts in the colon; set-up: method as in PMID 21940903; settings: RCN mice dosed orally with PhIP 2 weeks after 3MC, compared with PhIP alone; cited from earlier work
[6] = liver and gut POR deletion compared with WT/control
[7] = liver only POR deletion relative to control

With `Cc1ccc2cc3c(ccc4ccccc43)c3c2c1CC3` [3MC, 3-methylcholanthrene] the “residual hepatic POR expression (densitometric quantification)” value (POR [1]; ERL mice, 3MC 40 mg/kg i.p., results not shown) was < 4%, the “single dose required for knockdown in both liver and small intestine” value (POR [1]; ERL mice, i.p.) was 20 to 40 mg/kg and the “single dose for knockdown of hepatic POR expression” value (POR [1]; ERL mice, i.p., liver only) was 4 mg/kg. The “POR knockdown in large intestine” value (POR [1]; ERL mice, three daily doses of 3MC 40 mg/kg/day i.p., harvested 14 days after initial dose) was 50%, the “dose needed to knockdown POR in liver of ERL mice, lower than in RCN animals” value (POR [1]; ERL vs RCN animals (ref 20)) was 10 fold and the “decrease of cytochrome c reduction in small intestine” value (POR [2]; ERL animals treated with 40 mg/kg 3MC) was 78%. For the same compound, the “hepatic POR activity as % of WT” value (POR [2]; livers from ERL mice 14 days after 3MC 40 mg/kg) was “approximately 4%”, the “hepatic POR activity (cytochrome c reduction)” value (POR [2]; livers from ERL mice 14 days after 3MC 40 mg/kg, n=3, mean ± S.D., WT 60.3 ± 20.8) was 2.2 ± 1.9 nmol cytochrome c reduced/min/mg and the “cytochrome c reduction in small intestine” value (POR [2]; small intestine of ERL animals treated with 40 mg/kg 3MC, n=3, mean ± S.D., comparator 36.2 ± 15.6) was 8.2 ± 3.3 nmol cytochrome c reduced/min/mg. The “reduction in P450-mediated turnover of 7-benzyloxy-4-(trifluoromethyl)-coumarin” value (P450) was 95%, the “reduction in P450-mediated turnover of methoxyresorufin” value (P450) was 70% and the “increase in liver weight” value ([3]; single dose 3MC 40 mg/kg i.p., post mortem) was 60–90%.

`Cc1ncc2n1-c1ccc(Cl)cc1C(c1ccccc1F)=NC2` [Midazolam, midazolam] gave a Cl ([4]; Control (WT + corn oil), single p.o. dose nelfinavir 50 mg/kg, paroxetine 10 mg/kg or midazolam 5 mg/kg) of 113 ± 35 mL/min/kg, a Cmax ([4]; ERL (Por^lox/lox/Cre^Cyp1a1-KI), mouse, in vivo, Liver and gut null (ERL + 3MC 40 mg/kg, day 14), single p.o. dose nelfinavir 50, paroxetine 10 or midazolam 5 mg/kg) of 4460 ± 1530 ng/mL and a Cmax ([4]; ERL (Por^lox/lox/Cre^Cyp1a1-KI), mouse, in vivo, Liver null (ERL + 3MC 4 mg/kg, day 14), single p.o. dose nelfinavir 50, paroxetine 10 or midazolam 5 mg/kg) of 1850 ± 340 ng/mL. The Cl ([4]; Liver and gut null (ERL + 3MC 40 mg/kg, day 14), single p.o. dose nelfinavir 50, paroxetine 10 or midazolam 5 mg/kg) was 4.3 ± 0.9^••◦ ml/min/kg, the Cl ([4]; Liver null (ERL + 3MC 4 mg/kg, day 14), single p.o. dose nelfinavir 50, paroxetine 10 or midazolam 5 mg/kg) was 13 ± 5 mL/min/kg and the Cmax ([4]; WT (Por^lox/lox), mouse, in vivo, Control (WT + corn oil), single p.o. dose nelfinavir 50 mg/kg, paroxetine 10 mg/kg or midazolam 5 mg/kg) was 610 ± 110 ng/mL. For the same compound, the “increase in AUC” value [4, 6] was 22.9 fold, the “increase in Cmax” value [4, 6] was 7.3 fold and the increase in half-life [4, 6] was 1.6 fold. For the same compound, the decrease in clearance ([4]; liver and gut POR deletion relative to control) was 26.3 fold, the decrease in clearance [4, 7] was 9 fold and the “increase in AUC” value [4, 7] was 9 fold. The “increase in Cmax” value [4, 7] was 3 fold.

For `Fc1ccc([C@@H]2CCNC[C@H]2COc2ccc3c(c2)OCO3)cc1` [Paroxetine, paroxetine], the increase in half-life ([4]; ERL (Por^lox/lox/Cre^Cyp1a1-KI), control: WT (Por^lox/lox), mouse, in vivo) was 3.5 fold, the “change in Cmax” value ([4]; mouse, in vivo) was “essentially unchanged” and the decrease in clearance ([4]; mouse, in vivo) was ~ 3 fold. For the same compound, the “increase in AUC” value ([4]; mouse, in vivo) was 1.5 fold.

For `Cn1c(N)nc2ncc(-c3ccccc3)cc21` [PhIP, 2-amino-1-methyl-6-phenylimidazo[4,5-b]pyridine], the “reduction of adduct formation in the colon” value [5] is given as 50%.

For `O=c1cc(-c2ccccc2)oc2ccc3ccccc3c12` [βNF, β-naphthoflavone], the “body weight loss over the course of the treatment” value ([3]; single dose βNF 80 mg/kg i.p.) was 2 to 4 g and the “increase in liver weight vs corn oil treated ERL or βNF treated WT” value ([3]; single dose βNF 80 mg/kg i.p., 9 or 14 days) was “approximately 60%”.
